According to patent publication US5705499A, “8-arylalkyl- and 8-arylheteroalkyl-5,11-dihydro-6H-dipyrido[3,2-B:2',3'-e][1]diazepines and their use in the treatment of HIV-1 infection” (Boehringer Ingelheim Pharmaceuticals, Inc., priority 1996, dated 1998):

Each molecule was assayed on C8166-45 cell line (assay: MTT Assay (cytotoxicity)). Details: C8166-45 cells, five days.
Assay type: cell-based, human
In the case of `CCN1c2ncc(CCc3ccc4ccccc4c3)cc2C(=O)N(C)c2ccc(F)nc21` [Example 41, 5,11-Dihydro-11-ethyl-2-fluoro-5-methyl-8-[2-(2-naphthyl)ethyl]-6H-dipyrido[3,2-b:2',3'-e][1,4]diazepin-6-one], the “MTT Assay CC30” value is reported as 20 µM. `CCN1c2ncc(CCc3ccccc3C)cc2C(=O)N(C)c2cccnc21` [Example 62, 5,11-Dihydro-11-ethyl-5-methyl-8-[2-(2-tolyl)ethyl]-6H-dipyrido[3,2-b:2',3'-e][1,4]diazepin-6-one] was tested, and the “MTT Assay CC30” value was greater than 130 µM. `CCN1c2ncc(CCc3ccccc3N)cc2C(=O)N(C)c2cccnc21` [Example 64, 8-[2-(2-Aminophenyl)ethyl]-5,11-dihydro-11-ethyl-5-methyl-6H-dipyrido[3.2-b:2',3'-e][1,4]diazepin-6-one] was tested, and the “MTT Assay CC30” value was greater than 200 µM. With `CCN1c2ncc(CCc3ccnc(C)c3)cc2C(=O)N(C)c2cccnc21` [Example 65, 5,11-Dihydro-11-ethyl-5-methyl-8-[2-(2-methylpyrid-4-yl)ethyl]-6H-dipyrido[3,2-b:2',3'-e][1,4]diazepin-6-one] the “MTT Assay CC30” value was 230 µM. For `CCN1c2ncc(CCc3ccnc(C)c3)cc2C(=O)N(C)c2ccc(Cl)nc21` [Example 66, 2-Chloro-5,11-dihydro-11-ethyl-5-methyl-8-[2-(2-methylpyrid-4-yl)ethyl]-6H-dipyrido[3,2-b:2',3'-e][1.4]diazepin-6-one], the “MTT Assay CC30” value was 100 µM. With `CCN1c2ncc(CCc3ccnc(CO)c3)cc2C(=O)N(C)c2ccc(Cl)nc21` [Example 67, 2-Chloro-5,11-dihydro-11-ethyl-5-methyl-8-[2-(2-hydroxymethyl-4-pyridyl)ethyl]-6H -dipyrido[3,2-b:2',3'-e][1,4]diazepin-6-one] the “MTT Assay CC30” value was 128 µM. In the case of `CCN1c2ncc(CCc3ccnc(C(N)=O)c3)cc2C(=O)N(C)c2ccc(Cl)nc21` [Example 69, 2-Chloro-5,11-dihydro-11-ethyl-5-methyl-8-[2-(2-carboxamidopyrid-4-yl)ethyl]-6H-dipyrido[3,2-b:2',3'-e][1,4]diazepin-6-one], the “MTT Assay CC30” value is reported as greater than 128 µM. With `CCN1c2ncc(CCc3ccccc3)cc2C(=O)Nc2c1nc(Cl)c(Br)c2C` [Example 75, 3-Bromo-2-chloro-5,11-dihydro-11-ethyl-4-methyl-8-(2-phenylethyl)-6H-dipyrido[3,2-b:2',3'-e][1,4]diazepin-6-one] the “MTT Assay CC30” value was greater than 130 µM. With `CCN1c2ncc(CCc3ccccc3)cc2C(=O)Nc2c(C)ccnc21` [Example 76, 5,11-Dihydro-11-ethyl-4-methyl-8-(2-phenylethyl)-6H-dipyrido[3,2-b:2',3'-e][1,4]diazepin-6-one] the “MTT Assay CC30” value was greater than 130 µM. With `CCN1c2ncc(C=O)cc2C(=O)N(C)c2ccc(Cl)nc21` [Example 80, 2-chloro-5,11-dihydro-11-ethyl-8-formyl-5-methyl-6H-dipyrido[3,2-b:2',3'-e][1,4]diazepin-6-one] the “MTT Assay CC30” value was 65 µM. For `CCN1c2ncc(CCl)cc2C(=O)N(C)c2ccc(Cl)nc21` [Example 82, 2-chloro-8-chloromethyl-5,11-dihydro-11-ethyl-5-methyl-6H-dipyrido[3,2-b:2',3'-e][1,4]diazepin-6-one], the “MTT Assay CC30” value was greater than 256 µM. For `CCN1c2ncc(CCO)cc2C(=O)N(C)c2ccc(Cl)nc21` [Example 85, 2-chloro-5,11-dihydro-11-ethyl-8-(β-hydroxy)ethyl-5-methyl-6H-dipyrido[3,2-b:2',3'-e][1,4]diazepin-6-one], the “MTT Assay CC30” value was greater than 256 µM. `CCN1c2ncc(C(C)O)cc2C(=O)N(C)c2ccc(Cl)nc21` (stereo not drawn) [Example 86, 2-chloro-5,11-dihydro-11-ethyl-8-(α-hydroxy)ethyl-5-methyl-6H-dipyrido[3,2-b:2',3'-e][1,4]diazepin-6-one] was tested, and the “MTT Assay CC30” value was 256 µM. In the case of `CCN1c2ncc(CNc3ccccc3)cc2C(=O)N(C)c2ccc(Cl)nc21` [Example 87, 2-chloro-5,11-dihydro-11-ethyl-5-methyl-8-(phenylamino)methyl-6H-dipyrido[3,2-b:2',3'-e][1,4]diazepin-6-one], the “MTT Assay CC30” value is reported as greater than 60 µM. With `CCN1c2ncc(CNc3cccc(N)c3)cc2C(=O)N(C)c2ccc(Cl)nc21` [Example 88, 8-(3-aminophenylamino)methyl-2-chloro-5,11-dihydro-11-ethyl-5-methyl-6H-dipyrido[3,2-b:2',3'-e][1,4]diazepin-6-one] the “MTT Assay CC30” value was 60 µM. With `CCN1c2ncc(O)cc2C(=O)N(C)c2ccc(Cl)nc21` [Example 89, 2-chloro-5,11-dihydro-11-ethyl-8-hydroxy-5-methyl-6H-dipyrido[3,2-b:2',3'-e[]1,4]diazepin-6-one] the “MTT Assay CC30” value was 130 µM. With `CCN1c2ncc(OCc3ccccc3)cc2C(=O)N(C)c2ccc(Cl)nc21` [Example 90, 2-chloro-5,11-dihydro-11-ethyl-5-methyl-8-phenylmethoxy-6H-dipyrido[3,2-b:2',3'-e][1,4]diazepin-6-one] the “MTT Assay CC30” value was greater than 60 µM. In the case of `CCN1c2ncc(COc3cc[n+]([O-])c(C)c3)cc2C(=O)N(C)c2ccc(Cl)nc21` [Example 94, 2-chloro-5,11-dihydro-11-ethyl-5-methyl-8-(N-oxo-2-methylpyrid-4-yloxy)methyl-6H-dipyrido[3,2-b:2',3'-e][1,4]diazepin-6-one], the “MTT Assay CC30” value is reported as 200 µM. In the case of `CCN1c2ncc(COc3cc[n+]([O-])c(C(F)(F)F)c3)cc2C(=O)N(C)c2ccc(Cl)nc21` [Example 95, 2-chloro-5,11-dihydro-11-ethyl-5-methyl-8-(N-oxo-2-trifluoromethylpyrid-4-yloxy)methyl-6H-dipyrido[3,2-b:2',3'-e][1,4]diazepin-6-one], the “MTT Assay CC30” value is reported as 100 µM. For `CCN1c2ncc(COc3cc[n+]([O-])cc3)cc2C(=O)N(C)c2cccnc21` [Example 97, 5,11-dihydro-11-ethyl-5-methyl-8-((1-oxo-pyridin-4-yl)oxy)methyl-6H-dipyrido[3,2-b:2',3'-e][1,4]diazepin-6-one], the “MTT Assay CC30” value was greater than 130 µM. `CCN1c2ncc(COc3cccc([N+](=O)[O-])c3)cc2C(=O)N(C)c2ccc(Cl)nc21` [Example 98] was tested, and the “MTT Assay CC30” value was greater than 60 µM. For `CCN1c2ncc(COc3cccc(F)c3)cc2C(=O)N(C)c2ccc(Cl)nc21` [Example 101], the “MTT Assay CC30” value was greater than 60 µM. For `CCN1c2ncc(COc3ccc(F)cc3)cc2C(=O)N(C)c2ccc(Cl)nc21` [Example 103, 2-chloro-5,11-dihydro-11-ethyl-8-(4-fluorophenyloxy)methyl-5-methyl-6H-dipyrido[3,2-b:2',3'-e][1,4]diazepin-6-one], the “MTT Assay CC30” value was greater than 60 µM. In the case of `CCN1c2ncc(COc3ccc(O)cc3)cc2C(=O)N(C)c2ccc(Cl)nc21` [Example 105, 2-chloro-5,11-dihydro-11-ethyl-8-(4-hydroxyphenyloxy)methyl-5-methyl-6H-dipyrido[3,2-b:2',3'-e][1,4]diazepin-6-one], the “MTT Assay CC30” value is reported as 40 µM. For `CCN1c2ncc(COc3ccccc3O)cc2C(=O)N(C)c2ccc(Cl)nc21` [Example 106, 2-chloro-5,11-dihydro-11-ethyl-8-(2-hydroxyphenyloxy)methyl-5-methyl-6H-dipyrido[3,2-b:2',3'-e][1,4]diazepin-6-one], the “MTT Assay CC30” value was greater than 60 µM. For `CCN1c2ncc(COc3cccnc3)cc2C(=O)N(C)c2ccc(Cl)nc21` [Example 107, 2-chloro-5,11-dihydro-11-ethyl-5-methyl-8-(3-pyridyloxy)methyl-6H-dipyrido[3,2-b:2',3'-e][1,4]diazepin-6-one], the “MTT Assay CC30” value was greater than 256 µM. For `CCN1c2ncc(COc3cccc(OC)c3)cc2C(=O)N(C)c2ccc(Cl)nc21` [Example 108, 2-chloro-5,11-dihydro-11-ethyl-8-(3-methoxyphenyloxy)methyl-5-methyl-6H-dipyrido[3,2-b:2',3'-e][1,4]diazepin-6-one], the “MTT Assay CC30” value was greater than 120 µM. For `CCN1c2ncc(COc3ccc(C(=O)OC)cc3)cc2C(=O)N(C)c2ccc(Cl)nc21` [Example 109, 2-chloro-5,11-dihydro-11-ethyl-8-(4-(methoxycarbonyl)phenyloxy)methyl-5-methyl-6H-dipyrido[3,2-b :2',3'-e][1,4]diazepin-6-one], the “MTT Assay CC30” value was greater than 60 µM. `CCN1c2ncc(COc3ccccc3C(=O)OC)cc2C(=O)N(C)c2ccc(Cl)nc21` [Example 110, 2-chloro-5,11-dihydro-11-ethyl-8-(2-(methyoxycarbonyl)phenyloxy)methyl-5-methyl-6H-dipyrido[3,2-b:2',3'-e][1,4]diazepin-6-one] was tested, and the “MTT Assay CC30” value was greater than 250 µM. `CCN1c2ncc(COc3cccc(C(=O)OC)c3)cc2C(=O)N(C)c2ccc(Cl)nc21` [Example 111] was tested, and the “MTT Assay CC30” value was greater than 60 µM. `CCN1c2ncc(COc3cccc(C(=O)O)c3)cc2C(=O)N(C)c2ccc(Cl)nc21` [Example 112, 2-chloro-5,11-dihydro-11-ethyl-8-(3-(carboxy)phenyloxy)methyl-5-methyl-6H-dipyrido[3,2-b:2',3'-e][1,4]diazepin-6-one] was tested, and the “MTT Assay CC30” value was 250 µM. With `CCN1c2ncc(COc3cccc(C(N)=O)c3)cc2C(=O)N(C)c2ccc(Cl)nc21` [Example 113, 8-(3-(aminocarbonyl)phenyloxy)methyl-2-chloro-5,11-dihydro-11-ethyl-5-methyl-6H-dipyrido[3,2-b:2',3'-e][1,4]diazepin-6-one] the “MTT Assay CC30” value was 130 µM. For `CCN1c2ncc(COc3cccc4[nH]ccc34)cc2C(=O)N(C)c2ccc(Cl)nc21` [Example 114, 2-chloro-5,11-dihydro-11-ethyl-8-(4-indolyloxy)methyl-5-methyl-6H-dipyrido[3,2-b:2',3'-e][1,4]diazepin-6-one], the “MTT Assay CC30” value was 30 µM. For `CCN1c2ncc(CN(C)c3ccccc3)cc2C(=O)N(C)c2ccc(Cl)nc21` [Example 116, 2-chloro-5,11-dihydro-11-ethyl-5-methyl-8-(N-methylphenylamino)methyl-6H-dipyrido[3,2-b:2',3'-e][1,4]diazepin-6-one], the “MTT Assay CC30” value was greater than 60 µM.
